Article PMC8580884, “A Novel System for Evaluating the Inhibition Effect of Drugs on Cytochrome P450 Enzymes in vitro Based on Human-Induced Hepatocytes (hiHeps)” (Frontiers in Pharmacology, 2021)

How the values were obtained:
CYP2B6 [1] = molecular target: T1, CYP2B6 (Homo sapiens, UniProt P20813); test: intact hiHeps cells, metabolite by UPLC-MS/MS, Lineweaver-Burk; type: cell-based; details: hepatocytes
T1 construct: native enzyme in human liver microsomes (IC50) or human-induced hepatocytes hiHeps (Km); read by bupropion to hydroxybupropion
T1 sequence (P20813 1-491): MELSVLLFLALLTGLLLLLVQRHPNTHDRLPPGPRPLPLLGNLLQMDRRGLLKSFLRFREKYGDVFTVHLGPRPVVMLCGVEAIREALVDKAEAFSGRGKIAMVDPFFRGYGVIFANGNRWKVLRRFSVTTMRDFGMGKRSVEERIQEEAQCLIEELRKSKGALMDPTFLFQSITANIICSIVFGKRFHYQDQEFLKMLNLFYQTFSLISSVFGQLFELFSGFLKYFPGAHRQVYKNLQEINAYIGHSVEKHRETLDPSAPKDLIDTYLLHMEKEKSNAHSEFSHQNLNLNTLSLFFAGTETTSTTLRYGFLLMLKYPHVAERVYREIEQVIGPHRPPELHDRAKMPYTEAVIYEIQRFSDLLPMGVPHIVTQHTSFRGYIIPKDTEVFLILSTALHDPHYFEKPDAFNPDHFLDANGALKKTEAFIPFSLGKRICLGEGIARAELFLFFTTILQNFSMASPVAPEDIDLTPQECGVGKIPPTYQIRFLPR

CYP3A4 [2] = molecular target: T2, CYP3A4 (Homo sapiens, UniProt P08684); test: human liver microsomes, cocktail probe assay, UPLC-MS/MS; type: biochemical; details: 10 μM midazolam in five-probe cocktail, NADPH, MgCl2, alamethicin, 37°C, 60 min; read-out: IC50 (μM) / HLM
T2 construct: native enzyme in human liver microsomes (IC50) or human-induced hepatocytes hiHeps (Km); read by midazolam to 1'-hydroxymidazolam (CYP3A5 may contribute)
Text: human liver microsomes, cocktail probe assay, UPLC-MS/MS on CYP3A4

CYP2C19 = molecular target: T3, CYP2C19 (Homo sapiens, UniProt P33261); test: as above; type: biochemical; details: read-out: IC50 (μM) / HLM
T3 construct: native enzyme in human liver microsomes (IC50) or human-induced hepatocytes hiHeps (Km)
Text: human liver microsomes, cocktail probe assay, UPLC-MS/MS on CYP2C19

CYP2B6 [3] = molecular target: T1, CYP2B6; test: as above; type: biochemical; details: read-out: IC50 (μM) / HLM
Text: human liver microsomes, cocktail probe assay, UPLC-MS/MS on CYP2B6

CYP1A2 = molecular target: T4, CYP1A2 (Homo sapiens, UniProt P05177); test: as above; type: biochemical; details: read-out: IC50 (μM) / HLM
T4 construct: native enzyme in pooled human liver microsomes (IC50) or human-induced hepatocytes hiHeps (Km); read by phenacetin to acetaminophen
T4 sequence (P05177 2-516): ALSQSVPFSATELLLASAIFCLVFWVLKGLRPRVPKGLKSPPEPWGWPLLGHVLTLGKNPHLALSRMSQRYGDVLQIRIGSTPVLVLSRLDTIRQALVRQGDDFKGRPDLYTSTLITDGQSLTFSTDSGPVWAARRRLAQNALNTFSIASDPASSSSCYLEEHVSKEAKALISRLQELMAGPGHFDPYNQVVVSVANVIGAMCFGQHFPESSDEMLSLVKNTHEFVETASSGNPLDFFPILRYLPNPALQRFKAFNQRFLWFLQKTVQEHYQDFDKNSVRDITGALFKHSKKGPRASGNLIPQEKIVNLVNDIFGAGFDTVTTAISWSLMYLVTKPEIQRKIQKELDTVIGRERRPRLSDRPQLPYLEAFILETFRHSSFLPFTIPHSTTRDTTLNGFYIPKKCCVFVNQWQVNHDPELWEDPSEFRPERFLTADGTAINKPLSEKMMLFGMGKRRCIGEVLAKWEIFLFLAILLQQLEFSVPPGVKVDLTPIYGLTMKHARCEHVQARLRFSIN
Text: human liver microsomes, cocktail probe assay, UPLC-MS/MS on CYP1A2

CYP2C9 = molecular target: T5, CYP2C9 (Homo sapiens, UniProt P11712); test: intact hiHeps cells, metabolite by UPLC-MS/MS, Lineweaver-Burk; type: cell-based; details: hepatocytes
T5 construct: native enzyme in human liver microsomes (IC50) or human-induced hepatocytes hiHeps (Km); read by diclofenac to 4'-hydroxydiclofenac

CYP3A4 [4] = molecular target: T2, CYP3A4; test: as above; type: cell-based

T2 sequence (P08684 2-503): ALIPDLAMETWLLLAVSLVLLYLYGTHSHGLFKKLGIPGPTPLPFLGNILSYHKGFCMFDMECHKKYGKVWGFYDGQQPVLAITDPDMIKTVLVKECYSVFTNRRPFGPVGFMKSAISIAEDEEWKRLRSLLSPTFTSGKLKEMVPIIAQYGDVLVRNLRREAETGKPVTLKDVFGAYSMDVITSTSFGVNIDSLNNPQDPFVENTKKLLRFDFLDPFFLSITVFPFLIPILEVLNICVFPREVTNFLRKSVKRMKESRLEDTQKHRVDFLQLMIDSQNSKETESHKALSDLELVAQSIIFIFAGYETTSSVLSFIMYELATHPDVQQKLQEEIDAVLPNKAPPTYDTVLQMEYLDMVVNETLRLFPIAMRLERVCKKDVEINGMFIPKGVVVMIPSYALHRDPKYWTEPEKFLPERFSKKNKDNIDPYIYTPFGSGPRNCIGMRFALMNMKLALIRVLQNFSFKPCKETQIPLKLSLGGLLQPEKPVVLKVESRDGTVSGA
T3 sequence (P33261 whole entry): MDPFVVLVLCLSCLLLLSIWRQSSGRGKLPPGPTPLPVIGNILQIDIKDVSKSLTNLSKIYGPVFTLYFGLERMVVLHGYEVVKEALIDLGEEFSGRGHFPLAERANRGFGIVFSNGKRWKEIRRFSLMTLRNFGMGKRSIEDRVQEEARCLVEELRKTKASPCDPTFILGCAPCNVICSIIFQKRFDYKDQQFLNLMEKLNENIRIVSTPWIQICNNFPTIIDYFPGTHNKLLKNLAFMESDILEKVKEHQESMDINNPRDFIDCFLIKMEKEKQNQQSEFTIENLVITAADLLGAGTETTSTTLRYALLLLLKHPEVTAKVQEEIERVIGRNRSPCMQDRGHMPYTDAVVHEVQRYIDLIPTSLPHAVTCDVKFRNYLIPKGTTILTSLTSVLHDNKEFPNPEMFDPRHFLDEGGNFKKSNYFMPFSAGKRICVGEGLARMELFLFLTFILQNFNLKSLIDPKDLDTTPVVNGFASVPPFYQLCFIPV
T5 sequence (P11712 whole entry): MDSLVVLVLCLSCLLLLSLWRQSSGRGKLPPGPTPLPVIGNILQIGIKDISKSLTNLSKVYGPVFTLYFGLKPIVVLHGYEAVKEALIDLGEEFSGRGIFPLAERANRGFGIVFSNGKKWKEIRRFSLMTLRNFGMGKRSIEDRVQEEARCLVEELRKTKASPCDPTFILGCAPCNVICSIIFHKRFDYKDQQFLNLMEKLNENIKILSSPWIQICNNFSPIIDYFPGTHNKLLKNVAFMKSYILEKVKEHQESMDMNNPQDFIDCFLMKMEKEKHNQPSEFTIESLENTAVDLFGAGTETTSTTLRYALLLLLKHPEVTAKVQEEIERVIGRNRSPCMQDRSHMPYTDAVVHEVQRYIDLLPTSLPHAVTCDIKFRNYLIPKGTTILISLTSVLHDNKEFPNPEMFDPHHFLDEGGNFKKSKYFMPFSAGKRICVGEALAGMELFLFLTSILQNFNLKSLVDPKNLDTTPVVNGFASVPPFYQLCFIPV

SMILES: CC(NC(C)(C)C)C(=O)c1cccc(Cl)c1 (stereo not shown) [bupropion]
- Km (CYP2B6 [1]): 151 µM

SMILES: COc1cc(/C=C/C(=O)CC(=O)/C=C/c2ccc(O)c(OC)c2)ccc1O [curcumin]
- IC50 (CYP3A4 [2]): 21 ± 1.27 µM
- IC50 (CYP2C19): > 500 µM
- IC50 (CYP2B6 [3]): 30 ± 2.09 µM
- IC50 (CYP1A2): 50.1 ± 2.71 µM

SMILES: O=C(O)Cc1ccccc1Nc1c(Cl)cccc1Cl [diclofenac]
- Km (CYP2C9): 41.9 µM

SMILES: Cc1ncc2n1-c1ccc(Cl)cc1C(c1ccccc1F)=NC2 [midazolam]
- Km (CYP3A4 [4]): 13.9 µM
